Assay results reported in patent publication US6846492B2, “Use of phenylethylamine derivatives for the antimicrobial treatment of surfaces” (Ciba Specialty Chemicals Corporation, priority 2000, dated 2005).

Experiments:
Assay type in all cases: cell-based
[1] = tested on: Staphylococcus hominis DMS 20328 (= SH); assay: MIC determination in microtiter plates, Staphylococcus hominis; conditions: Tables 2a/2b, 48 hours at 37° C., ≦20% growth, optical density 620 nm, tested at 120, 60, 30, 15, 7.5 and 3.5 ppm, some approximate
Method: (§1) Determination of the Minimum Inhibitory Concentration (MIC Value) in Microtiter Plates
(§2) Casein/soybean flour peptone bouillon for the preparation of pre-cultures of the test bacteria and yeast.
(§3) Mycological slant agar for the pre-culture of moulds
(§4) The test substances are pre-dissolved in dimethyl sulfoxide (DMSO) and tested in a dilution series of 1:2.
(§5) Bacteria and yeast are cultured overnight in CASO bouillon, the mould is cultured overnight on mycological slant agar, and washed off with 10 ml of 0.85% sodium chloride solution (+0.1% TritonX-100).
(§6) All the test organisms are adjusted to an organism count of 1−5×10^6 CFU/ml using 0.85% sodium chloride solution.
(§7) The test substances are pre-pipetted into microtiter plates in an amount of 8 μl per well.
(§8) Pre-diluted organism suspensions are diluted 1:100 in CASO bouillon (bacteria and yeast) or Sabouraud 2% glucose bouillon (mould) and are added in an amount of 192 μl per well to the test substances.
(§9) The test batches are incubated for 48 hours at 37° C. (bacteria and yeast) or for 5 days at 28° C. (mould).
(§10) After incubation, the growth is evaluated by reference to the turbidity of the test batches (optical density) at 620 nm in a microplate reader.
(§11) One microtiter plate is used for each test organism and substance concentration. All the substances are tested in duplicate.

[2] = tested on: Escherichia coli NCTC 8196 (= EC); assay: MIC determination in microtiter plates, Escherichia coli; conditions: Tables 2a/2b, 48 hours at 37° C., ≦20% growth, optical density 620 nm, some approximate values
Method: as §1, §2, §3, §4, §5, §6, §7, §8, §9, §10, §11

[3] = tested on: Pseudomonas aeruginosa CIP A-22 (= PA); assay: MIC determination in microtiter plates, Pseudomonas aeruginosa; conditions: Tables 2a/2b, 48 hours at 37° C., ≦20% growth, optical density 620 nm, some approximate values
Method: as §1, §2, §3, §4, §5, §6, §7, §8, §9, §10, §11

[4] = tested on: Candida albicans ATCC 10231 (= CA); assay: MIC determination in microtiter plates, Candida albicans; conditions: Tables 2a/2b, 48 hours at 37° C., ≦20% growth, optical density 620 nm, some approximate values
Method: as §1, §2, §3, §4, §5, §6, §7, §8, §9, §10, §11

[5] = tested on: Aspergillus niger ATCC 6275 (= AN); assay: MIC determination in microtiter plates, Aspergillus niger; conditions: Tables 2a/2b, 5 days at 28° C., ≦20% growth, optical density 620 nm, some approximate values
Method: as §1, §2, §3, §4, §5, §6, §7, §8, §9, §10, §11

Row | SMILES | MIC [ppm] SH [1] | MIC [ppm] EC [2] | MIC [ppm] PA [3] | MIC [ppm] CA [4] | MIC [ppm] AN [5]
1 | COc1cccc(COc2ccc(CCN)cc2OCc2cccc(OC)c2)c1 [Compound 4] | 30 ppm | 60 ppm | >120 ppm | 60 ppm | 7.5 ppm
2 | Cc1ccccc1COc1ccc(CCN)cc1OCc1ccccc1C [Compound 5] | 7.5 ppm | 15 ppm | >120 ppm | 15 ppm | 7.5 ppm
3 | Cc1cccc(COc2ccc(CCN)cc2OCc2cccc(C)c2)c1 [Compound 6] | 7.5 ppm | 15 ppm | 120 ppm | 7.5 ppm | 120 ppm
4 | Cc1ccc(COc2ccc(CCN)cc2OCc2ccc(C)cc2)cc1 [Compound 7] | 3.75 ppm | 7.5 ppm | 120 ppm | 3.75 ppm | >120 ppm
5 | NCCc1ccc(OCc2ccccc2C(F)(F)F)c(OCc2ccccc2C(F)(F)F)c1 [Compound 8] | 7.5 ppm | 7.5 ppm | >120 ppm | 15 ppm | >120 ppm
6 | NCCc1ccc(OCc2cccc(C(F)(F)F)c2)c(OCc2cccc(C(F)(F)F)c2)c1 [Compound 9] | 3.75 ppm | 3.75 ppm | >120 ppm | 7.5 ppm | >120 ppm
7 | NCCc1ccc(OCc2ccc(C(F)(F)F)cc2)c(OCc2ccc(C(F)(F)F)cc2)c1 [Compound 10] | 3.75 ppm | 7.5 ppm | >120 ppm | 3.75 ppm | >120 ppm
8 | N#Cc1ccccc1COc1ccc(CCN)cc1OCc1ccccc1C#N [Compound 11] | 120 ppm | >120 ppm | >120 ppm | >120 ppm | >120 ppm
9 | N#Cc1cccc(COc2ccc(CCN)cc2OCc2cccc(C#N)c2)c1 [Compound 12] | 60 ppm | 120 ppm | >120 ppm | >120 ppm | 30 ppm
10 | N#Cc1ccc(COc2ccc(CCN)cc2OCc2ccc(C#N)cc2)cc1 [Compound 13] | 120 ppm | 120 ppm | >120 ppm | >120 ppm | >120 ppm
11 | COC(=O)c1ccc(COc2ccc(CCN)cc2OCc2ccc(C(=O)OC)cc2)cc1 [Compound 14] | 7.5 ppm | 30 ppm | 120 ppm | 30 ppm | >120 ppm
12 | NCCc1ccc(OCc2ccccc2F)c(OCc2ccccc2F)c1 [Compound 15] | 30 ppm | 30 ppm | 120 ppm | 30 ppm | >120 ppm
13 | NCCc1ccc(OCc2cccc(F)c2)c(OCc2cccc(F)c2)c1 [Compound 16] | 7.5 ppm | 7.5 ppm | 120 ppm | 7.5 ppm | >120 ppm
14 | NCCc1ccc(OCc2ccc(F)cc2)c(OCc2ccc(F)cc2)c1 [Compound 17] | 12 ppm | 24 ppm | >120 ppm | 60 ppm | >120 ppm
15 | CC(C)(C)c1ccc(COc2ccc(CCN)cc2OCc2ccc(C(C)(C)C)cc2)cc1 [Compound 18] | 1.9 ppm | >60 ppm | >120 ppm | 60 ppm | >120 ppm
16 | NCCc1ccc(OCc2ccccc2)c(OCc2ccccc2)c1 [Compound 19] | 28 ppm | 28 ppm | >120 ppm | 60 ppm | >120 ppm
17 | NCCc1ccc(OCc2ccc3ccccc3c2)c(OCc2ccc3ccccc3c2)c1 [Compound 20] | 3.75 ppm | >120 ppm | >120 ppm | >120 ppm | >120 ppm
18 | COC(=O)COc1ccc(CCN)cc1OCC(=O)OC [Compound 21] | >120 ppm | >120 ppm | >120 ppm | >120 ppm | 120 ppm
19 | CCOC(=O)COc1ccc(CCN)cc1OCC(=O)OCC [Compound 22] | >120 ppm | >120 ppm | >120 ppm | >120 ppm | >120 ppm
20 | CCCOC(=O)COc1ccc(CCN)cc1OCC(=O)OCCC [Compound 23] | >120 ppm | >120 ppm | >120 ppm | >120 ppm | 15 ppm
21 | CC(C)OC(=O)COc1ccc(CCN)cc1OCC(=O)OC(C)C [Compound 24] | >120 ppm | >120 ppm | >120 ppm | >120 ppm | 15 ppm
22 | CC(C)(C)OC(=O)COc1ccc(CCN)cc1OCC(=O)OC(C)(C)C [Compound 25] | >120 ppm | >120 ppm | >120 ppm | >120 ppm | 15 ppm
23 | NCCc1ccc(OCC(=O)OCc2ccccc2)c(OCC(=O)OCc2ccccc2)c1 [Compound 26] | >120 ppm | >120 ppm | >120 ppm | >120 ppm | >120 ppm
24 | CCOC(=O)CCCOc1ccc(CCN)cc1OCCCC(=O)OCC [Compound 27] | >120 ppm | >120 ppm | >120 ppm | >120 ppm | >120 ppm
25 | CCOC(=O)CCCCOc1ccc(CCN)cc1OCCCCC(=O)OCC [Compound 28] | >120 ppm | >120 ppm | >120 ppm | >120 ppm | >120 ppm
26 | CCCOc1ccc(CCN)cc1OCCC [Compound 29] | >120 ppm | >120 ppm | >120 ppm | >120 ppm | >120 ppm
27 | CCCCOc1ccc(CCN)cc1OCCCC [Compound 30] | 120 ppm | 120 ppm | >120 ppm | 120 ppm | >120 ppm
28 | CC(C)Oc1ccc(CCN)cc1OC(C)C [Compound 31] | >120 ppm | >120 ppm | >120 ppm | >120 ppm | >120 ppm
29 | CC(C)(C)OC(=O)COc1cc(CCN)cc(OCC(=O)OC(C)(C)C)c1OCC(=O)OC(C)(C)C [Compound 76] |  | >120 ppm | >120 ppm | >120 ppm | >120 ppm
